Source: paper PMC11915075, “Dibenzo [a, c] phenazin-11-yl(phenyl) methanone (SBLJ23), a novel selective inhibitor targeting JAK2^V617F mutation in myeloproliferative neoplasms” (Oncology Research, 2025)

Molecular target: JAK2 (Homo sapiens, UniProt O60674)
Assay: biochemical

Chain of JAK2 (O60674 whole entry): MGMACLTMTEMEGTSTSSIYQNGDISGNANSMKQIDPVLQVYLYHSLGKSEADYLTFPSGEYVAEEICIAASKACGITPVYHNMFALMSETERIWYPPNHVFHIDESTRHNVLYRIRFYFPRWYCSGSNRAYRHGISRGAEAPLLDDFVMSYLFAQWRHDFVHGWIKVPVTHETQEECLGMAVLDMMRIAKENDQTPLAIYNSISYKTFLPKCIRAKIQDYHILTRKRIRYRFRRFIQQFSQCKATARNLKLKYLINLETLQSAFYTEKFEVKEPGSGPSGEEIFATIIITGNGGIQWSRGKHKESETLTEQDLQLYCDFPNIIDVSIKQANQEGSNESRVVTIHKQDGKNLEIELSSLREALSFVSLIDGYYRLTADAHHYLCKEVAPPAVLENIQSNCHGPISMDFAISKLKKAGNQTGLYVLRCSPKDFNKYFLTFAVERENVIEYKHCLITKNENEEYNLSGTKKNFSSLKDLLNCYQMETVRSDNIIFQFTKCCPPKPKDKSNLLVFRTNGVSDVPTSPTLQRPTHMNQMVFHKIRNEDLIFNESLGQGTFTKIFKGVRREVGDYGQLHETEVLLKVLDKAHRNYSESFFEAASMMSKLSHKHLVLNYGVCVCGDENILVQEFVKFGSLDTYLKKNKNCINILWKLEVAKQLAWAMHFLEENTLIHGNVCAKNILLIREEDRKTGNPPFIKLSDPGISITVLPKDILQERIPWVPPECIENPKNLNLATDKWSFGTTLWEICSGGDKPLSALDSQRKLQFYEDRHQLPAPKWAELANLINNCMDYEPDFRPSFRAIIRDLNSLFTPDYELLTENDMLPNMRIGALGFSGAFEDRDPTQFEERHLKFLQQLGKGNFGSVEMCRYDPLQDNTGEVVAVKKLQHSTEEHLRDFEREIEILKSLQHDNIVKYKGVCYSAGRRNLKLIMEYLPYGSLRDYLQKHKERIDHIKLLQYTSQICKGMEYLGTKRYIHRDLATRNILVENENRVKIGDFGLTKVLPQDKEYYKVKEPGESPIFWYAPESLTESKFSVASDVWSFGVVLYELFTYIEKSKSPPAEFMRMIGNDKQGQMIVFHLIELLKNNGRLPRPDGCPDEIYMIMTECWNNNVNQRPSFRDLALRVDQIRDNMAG

Work on `O=C(c1ccccc1)c1ccc2nc3c4ccccc4c4ccccc4c3nc2c1` [SBLJ23, Dibenzo [a, c] phenazin-11-yl(phenyl) methanone] yielded an IC50 of 522 nM.
